The test system of one assay is PIK3CA^Tie2-Cre embryos. Nature of the assay: Treatment of pregnant PIK3CA^Tie2-Cre mice, embryo vascular phenotype. Type of assay: in vivo. Here is the method:
(§1) For the treatment of pregnant PIK3CA^Tie2-Cre mice, BYL719 was administered orally three times at E7.5, E8.5, and E9.5. Two hours after the last treatment, embryos were harvested and characterized. IHC and IF stainings were performed using Discovery XT processor (Ventana Medical Systems) at the Molecular Cytology Core (MSKCC). Tissue sections were deparaffinized with EZPrep buffer (Ventana Medical Systems), antigen retrieval was performed with CC1 buffer (Ventana Medical Systems). Sections were blocked for 30 minutes with Background Buster solution (Innovex) or 10% normal rabbit serum (for LYVE-1 antibody) followed by avidin/biotin blocking for 8 minutes. Sections were stained with the following antibodies: CD31: (Dianova, DIA-310, 1 μg×mL^−1) for 5 hours, followed by 60 minutes incubation with biotinylated goat anti-rat IgG (Vector labs, PK-4004) at 1:200 dilution. The detection was performed with Streptavidin-HRP D (Ventana Medical Systems), followed by incubation with Alexa Fluor 488 (Invitrogen, T20922); BrdU: sections were pretreated with Protease K (5 μg×mL^−1) and incubated with anti-BrdU (Roche, 1170376, 1 μg×mL^−1) for 5 hours, followed by 60 minutes incubation with biotinylated horse anti-mouse IgG (Vector Labs, MKB-22258). The detection was performed with Streptavidin-HRP D (Ventana Medical Systems), followed by incubation with Alexa Fluor 594 (Invitrogen, T20935). When two markers were used, stainings were performed consecutively according to the procedure described above. After staining, slides were counterstained with DAPI (Sigma, D9542, 5 μg×mL^−1) for 10 min and coverslipped with Mowiol. Antibodies were used as follows: GLUT-1: Sections were incubated with anti-GLUT-1 antibody (Chemicon, AB1340, 0.5 μg×mL^−1) for 4 hours, followed by 60 minutes incubation with biotinylated goat anti-rabbit IgG (Vector labs, PK6101) at 1:200 dilution; LYVE-1: Sections were incubated with anti-LYVE-1 antibody (R&D Systems, AF2125, 1 μg×mL^−1) for 3 hours, followed by 60 minutes incubation with biotinylated rabbit anti-goat IgG (Vector, BA-5000) at 1:200 dilution.; and WT-1: Sections were incubated with anti-WT-1 antibody (Abcam, Ab89901, 1:50 dilution) for 1 hour, followed by 60 minutes incubation with biotinylated rabbit anti-goat IgG (Vector, BA-5000) at 1:200 dilution. For GLUT-1, LYVE-1, and WT-1 IHC, detection was performed with DAB detection kit (Ventana Medical Systems) according to manufacturer instructions, followed by counterstaining with hematoxylin (Ventana Medical Systems) and coverslipped with Permount (Fisher Scientific).

The test system of another assay is ANG2. Nature of the assay: ANG2 mRNA (RT-qPCR) and protein (ELISA) in PIK3CA^H1047R ECs. Type of assay: cell-based, human. Particulars: serum-starved, treated overnight, BYL719 1 μM, MK2206 1 μM, Everolimus 50 nM; for ANG2 protein expression: ELISA; for ANG2 mRNA expression: RT-qPCR. For orientation: In qPCR the cycle at which signal appears reflects the starting amount.

Assay [1] has as its system PIK3CA^CAG-CreER VM-derived allografts. Nature of the assay: PIK3CA^CAG-CreER VM-derived allografts in nude mice, oral treatment. The class given is in vivo. Particulars: for VM volume / apoptosis (cleaved caspase 3 in CD31-positive cells) / proliferation (BrdU incorporation in CD31-positive cells): allografts in nude mice, daily p.o., one week, BYL719 50 mg×kg^−1, everolimus 10 mg×kg^−1, propranolol 40 mg×kg^−1. Here is the method:
For allograft studies, vascular lesions isolated from PIK3CA^CAG-CreER mice were rinsed with ice cold PBS, minced, resuspended with cold 1:1 DMEM/Matrigel, and injected subcutaneously in six-week-old female athymic Foxn1^nu nude mice. […] The following formula was applied:
[formula] After one week of treatment, VM were measured and harvested for further analysis. VM volume was calculated using the following formula: […]
as §1, with “IHC” for “For the treatment of pregnant PIK3CA^Tie2-Cre mice, BYL719 was administered orally three times at E7.5, E8.5, and E9.5. Two hours after the last treatment, embryos were harvested and characterized. IHC”
On the technique in general: Incorporation of labelled thymidine or its analogues reports DNA synthesis.

The test system of assay [2] is phosphorylated AKT (T308 and S473). Nature of the assay: Western blot of HUVEC cells expressing TEK L914F. The class given is cell-based, human. To be noted: HUVEC stably expressing TEK L914F, treated 4 hours. Here is the method: FIGS. 27A-27B. Treatment of VM with PI3K inhibitors. (A) Western blot of HUVEC cells transduced with TEK L914F mutation and probed with the indicated antibodies. Cells were treated for 4 hours with the indicated doses of BYL719. (B) Representative images of the allograft VM treated with the topical formulation of BYL719. Free and soluble refer to the two different preparations of the topical formula. Arrows indicate the area affected by the VM allograft.
Proteins were extracted using RIPA buffer and Western blot was performed usim standard methods. Antibodies for Western blot were: pAKT (S473) (Cell Signaling; 4060), pAKT (T308) (Cell Signaling; 2965), AKT (Cell Signaling; 9272), pS6K (T389) (Cell Signaling; 9205), S6K (Cell Signaling; 2708), pS6 (S240/4) (Cell Signaling; 5364), pS6 (S235/6) (Cell Signaling; 4858), S6 (Cell Signaling; 2217), actin (Cell Signaling; 4970). Tube formation assay was performed using Matrigel-coated 48 multiwells as a substrate. 10^5 EC were seeded in EBM-2 media without FBS and analyzed after 6 hours for tube formation.
A general note: A western blot detects proteins with antibodies after separation by electrophoresis.

For assay [3], the system named is PIK3CA^CAG-CreER VM-derived allografts. As to the kind of experiment: VM allografts treated topically with BYL719 1% (w/w) cream. Type of assay: in vivo, mice. To be noted: topical, daily, BYL719 1% (w/w) in two cream formulations (free and soluble BYL719), 3 weeks. On the procedure:
For the formulation of topical preparations, the cream base Versatile™ (Fargon) was used, which allows the incorporation of active principles and has the ability to vanish rapidly into the skin of the mice. Two different formulations using BYL719 at 1% (w/w) were prepared as follows. Free BYL719: This formulation was generated by mixing BYL719 in powder with the base cream and homogenized using an Ultra-Turrax to achieve a similar distribution of the active principle. Soluble BYL719: For this formula, BYL719 powder was dissolved in a small volume of DMSO (400 mg×mL^−1). This concentrated solution was then incorporated into the base cream with gentle agitation, achieving a homogeneous distribution of the active principle. The topical formulations were applied into the mice lesions at daily-basis and VM growth was assessed as described above.

[4] abbreviates: pregnant mice, BYL719 50 mg×kg^−1 p.o., 48, 24 and 2 hours before harvest.
[5] abbreviates: VVM in nude mice, BYL719 50 mg×kg-1 daily p.o.

Entries after “also recorded” stand apart in the source; their conditions may differ.

`Cc1nc(NC(=O)N2CCC[C@H]2C(N)=O)sc1-c1ccnc(C(C)(C)C(F)(F)F)c1` [BYL719]: the “meningeal, cardinal vein and dorsal aorta blood vessel morphology (histology, CD31 coronal sections)” value with PIK3CA^Tie2-Cre embryos (pregnant mice treated, E9.5 embryos) was “reestablished meningeal, cardinal vein, and dorsal aorta blood vessels morphology”. Also, the “Phospho-AKT staining in PIK3CA^Tie2-Cre and PIK3CA^WT embryos” value in the assay on PIK3CA^Tie2-Cre embryos (pregnant mice treated, versus untreated control embryos) is on record as “strong reduction”. In addition, in the assay with PIK3CA^Tie2-Cre embryos (setting [4]), the “cephalic and intersomitic small blood vessel formation (CD31 whole-mount staining)” value is “restored cephalic and intersomitic small blood vessel formation”; the “overall body size of PIK3CA^Tie2-Cre E9.5 embryos” value is given as “comparable to PIK3CA^WT littermates”. Further, in the assay with ANG2, the ANG2 protein expression result is given as “able to rescue” and the “ANG2 mRNA expression” value was “able to rescue”. Moreover, in assay [1] (setting [5]), the “phospho-AKT (S473) levels” value is “decrease” and the “phospho-S6RP (S240/4) levels” value is on record as “decrease”. Besides, in assay [1], the VM volume entry was “decrease in VM volume”, the “apoptosis (cleaved caspase 3 in CD31-positive cells)” value is reported as “increased apoptosis” and the “proliferation (BrdU incorporation in CD31-positive cells)” value was “decrease in proliferation; also recorded: reduced proliferation”. Besides, the “amount of phosphorylated AKT (T308 and S473)” value in assay [2] is “decreased”. Besides, the “regression of skin lesions (VM volume)” value in assay [3] was “rapid and sustained regression of skin lesions”.
`Cl.Cl.NC1(c2ccc(-c3nc4ccn5c(=O)[nH]nc5c4cc3-c3ccccc3)cc2)CCC1` [MK2206, 8-[4-(1-aminocyclobutyl)phenyl]-9-phenyl-1,2,4-triazolo[3,4-f][1,6]naphthyridin-3(2H)-one, dihydrochloride]: in the assay on ANG2, the ANG2 protein expression entry is listed as “able to rescue” and the “ANG2 mRNA expression” value is recorded as “able to rescue”.
As to `CO[C@H]1C[C@@H]2CC[C@@H](C)[C@@](O)(O2)C(=O)C(=O)N2CCCC[C@H]2C(=O)O[C@H]([C@H](C)C[C@@H]2CC[C@@H](OCCO)[C@H](OC)C2)CC(=O)[C@H](C)/C=C(\C)[C@@H](O)[C@@H](OC)C(=O)[C@H](C)C[C@H](C)/C=C/C=C/C=C/1C` [everolimus], in assay [1], the VM volume entry was “partially decreased VM size; also recorded: greatest growth inhibition”, the “apoptosis (cleaved caspase 3 in CD31-positive cells)” value is recorded as “did not increase apoptosis” and the “proliferation (BrdU incorporation in CD31-positive cells)” value was “partially decreased”.

Values taken from patent US10864215B2, “Use of phosphoinositide 3-kinase inhibitors for treatment of vascular malformations” (MEMORIAL SLOAN-KETTERING CANCER CENTER, priority 2015, dated 2020).
